# Results as given in EPA's ToxValDB 9.5.
# What was measured:
# Rattus norvegicus = details: for LD50: mortality
# Anas platyrhynchos = details: for LD50: acute, unspecified
# Pontoscolex corethrurus = details: acute
# Daphnia magna = details: for NOEC: chronic/long-term, duration: 21 days
# Homo sapiens = details: clinical
# Apis mellifera = details: acute, mortality
# Zea sp. = details: acute; duration: 22 days; biomass
# Bibionidae = details: chronic/long-term
# Tagia sp. = details: acute; duration: 14 days; mortality
# Oncorhynchus mykiss = details: for LC50: acute, duration: 96 hours, mortality
# Aphidius rhopalosiphi = details: not reported; mortality
# Chrysoperla externa = experiment: LR50; higher = less toxic; details: not reported; duration: 34 days; mortality
# Mus musculus = details: for NOAEL: repeat dose other
# Colinus virginianus = details: for LD50: acute, oral, mortality
# Aphidius colemani = experiment: LR50; higher = less toxic; details: not reported; mortality
# Pimephales promelas = details: chronic/long-term; duration: 255 days; growth
# Bovidae = details: for LEL: no effects
# Canidae = details: for NOAEL: oral
# Sus scrofa = details: short-term, oral, diet, Not specified; for LEL: duration: 28 days, no effects
# Ovis sp. = details: subchronic; duration: 8 weeks; oral; diet; no effects
# [1] = subchronic, duration: 90 days, oral
# [2] = chronic/long-term, duration: 28 days, growth
# [3] = reproduction developmental, reproduction
# [4] = reproduction developmental, no effects
# [5] = chronic, duration: 1 years, Dog Other, clinical chemistry
smiles,measurement,setting,value
"NC(Cc1ncn[nH]1)C(=O)O (stereo not drawn) [1,2,4-Triazole-3-alanine]",LD50,"Rattus norvegicus; acute, oral",> 5000 mg/kg-day
same,NOAEL,Rattus norvegicus; chronic,100 mg/kg-day
same,NOAEL,"Rattus norvegicus; developmental, development",100 mg/kg-day
same,LC50,"Anas platyrhynchos; short-term, duration: 5 days, oral, feed, mortality",> 1340 mg/kg-day
same,NOAEL,"Oryctolagus sp.; developmental, development",30 mg/kg-day
CCc1nccnc1C(C)=O [1-(3-Ethylpyrazinyl)ethan-1-one],LC50,Pontoscolex corethrurus; mortality,360 mg/kg
"CSCSSC [2,3,5-Trithiahexane]",NOAEL,[1],0.23 mg/kg-day
same,NOEL,"Rattus norvegicus; subchronic, duration: 13 weeks, oral, diet",0.3 mg/kg-day
same,NOAEL,Rattus norvegicus; [1],0.23 mg/kg-day
"CCc1nccnc1CC [2,3-Diethylpyrazine]",LC50,Pontoscolex corethrurus; mortality,236 mg/kg
"Cc1cc(SC(=O)CC(C)C)c(C)o1 [2,5-Dimethyl-3-thioisovalerylfuran]",NOAEL,"subchronic, duration: 90 days",0.73 mg/kg-day
same,NOAEL,"Rattus norvegicus; subchronic, duration: 90 days",0.73 mg/kg-day
CCc1occc(=O)c1O [2-Ethyl-3-hydroxy-4-pyrone],NOAEL,repeat dose other,200 mg/kg-day
Cc1csc(C(C)C)n1 [2-Isopropyl-4-methylthiazole],LC50,"Daphnia magna; acute, mortality",9 mg/L
same,LC50,Pontoscolex corethrurus; mortality,194 mg/kg
COc1nccnc1C [2-Methoxy-3-methylpyrazine],LC50,Pontoscolex corethrurus; mortality,245 mg/kg
c1csc(SSc2cccs2)c1 [2-Thienyl disulfide],NOAEL,repeat dose other,0.29 mg/kg-day
same,NOAEL,"Rattus norvegicus; subchronic, duration: 90 days",0.29 mg/kg-day
"CCCC/C=C\CCO [3-Octen-1-ol, (3Z)-]",LC50,Pontoscolex corethrurus; mortality,194 mg/kg
CC(=O)C(C)Sc1ccoc1C (stereo not drawn) [3-[(2-Methylfuran-3-yl)sulfanyl]butan-2-one],NOAEL,"subchronic, duration: 90 days",3.76 mg/kg-day
same,NOAEL,"Rattus norvegicus; subchronic, duration: 90 days, oral, diet",3.76 mg/kg-day
"CCOC(=O)/C(C)=C/C=C/C(C)=C/C=C/C=C(C)/C=C/C=C(C)/C=C/C1=C(C)CCCC1(C)C [8'-Apo-beta, psi-carotenoid acid, ethyl ester]",LEL,"Gallus gallus; subchronic, duration: 56 days, oral, diet, F, no effects",80 mg/kg-day
same,NOAEL,"Rattus norvegicus; subchronic, histopathology: nonneoplastic",3 mg/kg-day
CN1CCC[C@H]1c1cccnc1 [(-)-Nicotine],LOAEL,"Homo sapiens; injection, intravenous, clinical signs",0.0035 mg/kg-day
C/C=C(\C)C(=O)O[C@H]1C[C@@H](OC(C)=O)[C@@]2(C(=O)OC)CO[C@H]3[C@@H](O)[C@@](C)([C@]45O[C@@]4(C)[C@H]4C[C@@H]5O[C@@H]5OC=C[C@@]54O)[C@H]4[C@]1(CO[C@]4(O)C(=O)OC)[C@@H]32 [Azadirachtin],LD50,Apis mellifera; dermal,> 11.8 µg/piece
same,LD50,"Apis mellifera; duration: 48 hours, oral, unspecified",> 8.1 µg/piece
same,LD50,"Apis mellifera; oral, unspecified",> 8.1 µg/piece
same,LEL,Zea sp.,30.9 g/ha
same,NOEC,Bibionidae; duration: 28 days,0.0016 mg/L
same,NOEC,"Bibionidae; duration: 28 days, development",0.0016 mg/L
same,LC50,Tagia sp.,> 1000 mg/kg
same,LC50,Oncorhynchus mykiss,0.048 mg/L
same,NOEC,Oncorhynchus mykiss; [2],0.0047 mg/L
same,LEL,Aphidius rhopalosiphi,57.6 g/ha
same,NOEC,Daphnia magna; reproduction,0.038 mg/L
same,LR50,Chrysoperla externa,0.77 g/ha
CC(=O)[O-].CC(=O)[O-].O.O.O.O.[Co+2] [Cobalt(II) acetate tetrahydrate],LOAEL,"Homo sapiens; duration: 22 days, oral, hematological",1 mg/kg-day
COCCOC(=O)C(C#N)(C(=O)c1ccccc1C(F)(F)F)c1ccc(C(C)(C)C)cc1 (stereo not drawn) [Cyflumetofen],NOEC,"Bibionidae; duration: 28 days, development",≥ 0.064 mg/L
same,LC50,"Cyprinus carpio; acute, duration: 96 hours, mortality",> 0.54 mg/L
same,NOEC,Cyprinus carpio; [2],≥ 0.072 mg/L
same,NOEC,Daphnia magna; mortality,0.065 mg/L
C=C(C)[C@H]1CC=C(C)CC1 [D-Limonene],NOAEL,"Rattus norvegicus; repeat dose other, histopathology: nonneoplastic",250 mg/kg-day
same,NOAEL,Mus musculus; gross pathology,250 mg/kg-day
same,NOAEL,"Mus musculus; injection, intraperitoneal",215 mg/kg-day
Fc1ccc([C@@]2(Cn3cncn3)O[C@@H]2c2ccccc2Cl)cc1 [Epoxiconazole],LD50,Rattus norvegicus; acute,3160 mg/kg
same,NOAEL,Rattus norvegicus; reproduction developmental,2.3 mg/kg-day
same,LD50,Colinus virginianus; diet,> 907 mg/kg
same,LD50,Colinus virginianus,> 2000 mg/kg
same,NOEL,Colinus virginianus; reproduction developmental,1 mg/kg-day
OC[C@@H](O)[C@@H](O)CO [Erythritol],NOAEL,"Homo sapiens; duration: 27 months, oral, drinking water, clinical signs",710 mg/kg-day
NC=O [Formamide],NOAEL,"Oryctolagus sp.; reproduction developmental, duration: 13 days, oral, gavage, F, New Zealand, reproduction",34 mg/kg-day
CCOP(=O)=O.CCOP(=O)=O.CCOP(=O)=O.[Al+3] [Fosetyl aluminum],NOAEL,"Rattus norvegicus; short-term, histopathology: nonneoplastic",500 mg/kg-day
same,NOEC,Colinus virginianus; [3],216 mg/kg-day
C=C1C[C@]23C[C@@]1(O)CC[C@H]2[C@@]12C=C[C@H](O)[C@@](C)(C(=O)O1)[C@H]2[C@@H]3C(=O)O [Gibberellic acid],LD50,Apis mellifera; dermal,> 25 µg/piece
same,LD50,"Rattus norvegicus; acute, oral",> 5000 mg/kg
same,NOEL,Rattus norvegicus; [4],1000 mg/kg-day
same,NOAEL,"Rattus norvegicus; subchronic, duration: 90 days, oral, organ weight",680 mg/kg-day
same,LD50,Colinus virginianus; diet,> 904 mg/kg-day
same,LD50,"Anas platyrhynchos; oral, mortality",> 2000 mg/kg
same,NOEL,Oryctolagus sp.; [4],1000 mg/kg-day
same,LR50,Aphidius colemani,> 10 g/ha
O=C(O)CNCP(=O)(O)O [Glyphosate],LD50,"Rattus norvegicus; acute, oral",> 2000 mg/kg-day
same,NOEC,Pimephales promelas,25.7 mg/L
same,NOEC,"Danio rerio; short-term, duration: 168 hours, growth",1 mg/L
same,LD50,Colinus virginianus,4330 mg/kg-day
same,NOEL,Colinus virginianus; reproduction developmental,96.3 mg/kg-day
same,NOEC,Daphnia magna; reproduction,12.5 mg/L
same,NOEL,Anas platyrhynchos; reproductive,125 mg/kg-day
same,NOAEL,Oryctolagus sp.; chronic,50 mg/kg-day
ClC1=C(Cl)[C@]2(Cl)[C@@H]3[C@@H](Cl)[C@H]4O[C@H]4[C@@H]3C1(Cl)C2(Cl)Cl [Heptachlor epoxide B],NOAEL,"Gallus gallus; chronic, duration: 25 weeks, oral, diet, M/F, development",0.002 mg/kg-day
same,NOAEL,"Bovidae; subchronic, oral, diet, F",1.5 mg/kg-day
same,NOAEL,"Canidae; chronic, duration: 2 years, diet, M/F, Beagle, clinical chemistry",0.025 mg/kg-day
CC(C)C [Isobutane],NOAEC,[3],7.12 mg/m3
CC(O)C(=O)O (stereo not drawn) [Lactic acid],LEL,"Gallus gallus; subchronic, duration: 42 days, oral, diet, Chicken, no effects",30000 mg/kg-day
O=C(O)CC(O)C(=O)O (stereo not drawn) [Malic acid],LEL,"Gallus gallus; short-term, duration: 21 days, oral, diet, food consumption",20000 mg/kg-day
same,LEL,Sus scrofa; M/F,12000 mg/kg-day
same,LEL,"Bovidae; subchronic, oral, diet",23000 mg/kg-day
same,LEL,"Canidae; chronic, duration: 104 weeks, M/F, Beagle, no effects",50000 mg/kg-day
CBr [Methyl bromide],LD50,"Rattus norvegicus; acute, oral",104 mg/kg
same,NOAEL,Rattus norvegicus; [3],90 mg/kg-day
same,NOAEL,"Canidae; chronic, duration: 1 years, Dog Other",0.27 mg/kg-day
same,NOAEL,Canidae; [5],0.13 mg/kg-day
same,LC50,Oncorhynchus mykiss,3.9 mg/L
same,LD50,Colinus virginianus,73 mg/kg
NC(=O)c1ccc[n+]([C@@H]2O[C@H](CO)[C@@H](O)[C@H]2O)c1.[Cl-] [Nicotinamide riboside chloride],NOAEL,"Rattus norvegicus; developmental, duration: 15 days, oral, gavage, F, Sprague-Dawley, development",325 mg/kg-day
same,NOAEL,"Rattus norvegicus; subchronic, duration: 90 days, oral, gavage, M/F, Sprague-Dawley, body weight",300 mg/kg-day
same,NOAEL,"Canidae; short-term, duration: 28 days, gavage, M/F, Beagle, clinical chemistry",300 mg/kg-day
CC1=C[C@H]2O[C@@H]3[C@H](O)[C@@H](O)[C@](C)([C@@]2(CO)[C@H](O)C1=O)[C@]31CO1 [Nivalenol],LOAEL,"Gallus gallus; repeat dose other, organ weight",0.36 mg/kg-day
C=C(/C=C\C[C@@H](O)[C@@H](O)[C@H](O)C/C=C/C=C\[C@@H](O)C[C@@H]1O[C@H](C[C@@H](O)[C@H](O)C[C@H]2O[C@H]([C@H](O)[C@H](O)CC[C@H](O)/C=C/[C@H](C)[C@@H](O)C[C@]3(O)O[C@H]([C@@H](O)[C@@H](O)CCCCCCC[C@@]45C[C@@H](C)C[C@@](C)(O4)[C@@H](CCCCCCC[C@@H](O)C[C@H](O)[C@@H](O)[C@@H](O)[C@H]4O[C@H](C[C@H](O)[C@H](O)/C(C)=C/[C@H](O)CC[C@H](O)C(=O)N/C=C/C(=O)NCCCO)[C@H](O)[C@@H](O)[C@@H]4O)O5)C[C@@H](O)[C@H]3O)C[C@@H](O)[C@@H]2O)[C@@H](O)[C@H](O)[C@H]1O)CC[C@H](O)[C@@H](O)[C@H](O)[C@H](C)C[C@H]1O[C@H](/C=C\[C@@H](O)[C@H](O)C[C@@H]2C[C@@H]3C[C@H](O2)[C@@H](CC[C@H]2O[C@H](CN)C[C@H]2O)O3)[C@@H](O)[C@H](O)[C@H]1O [Ostreocin-D],LOAEL,"Mus musculus; acute, oral, gavage, M, ICR, clinical signs",0.2 mg/kg-day
CCN(CC)c1nc(C)cc(OP(=S)(OC)OC)n1 [Pirimiphos-methyl],NOAEL,"Rattus norvegicus; acute, clinical signs",15 mg/kg-day
same,NOAEL,"Rattus norvegicus; chronic, duration: 2 years, clinical signs",0.4 mg/kg-day
same,NOAEL,"Rattus norvegicus; subchronic, duration: 13 weeks, clinical signs",2.1 mg/kg-day
same,LC50,Oncorhynchus mykiss,0.2 mg/L
CC1=NNC(=O)N(/N=C/c2cccnc2)C1 [Pymetrozine],NOAEL,Canidae; [5],0.57 mg/kg-day
same,NOAEL,"Canidae; subchronic, duration: 90 days, diet, Beagle, organ weight",3 mg/kg-day
same,NOAEL,"Oryctolagus sp.; reproduction developmental, histopathology: nonneoplastic",10 mg/kg-day
CCS(=O)(=O)c1cccnc1S(=O)(=O)NC(=O)Nc1nc(OC)cc(OC)n1 [Rimsulfuron],LD50,"Rattus norvegicus; acute, oral",> 5000 mg/kg-day
same,NOAEL,"Rattus norvegicus; chronic, duration: 2 years, oral, body weight",11.8 mg/kg-day
same,NOAEL,"Rattus norvegicus; reproduction developmental, body weight",165 mg/kg-day
same,NOAEL,"Canidae; subchronic, duration: 90 days, Dog Other, body weight",9.63 mg/kg-day
same,LD50,"Anas platyrhynchos; oral, mortality",> 2000 mg/kg-day
same,NOEC,"Anas platyrhynchos; reproductive, oral, feed",117 mg/kg-day
same,NOAEL,"Oryctolagus sp.; reproduction developmental, mortality",170 mg/kg-day
Cl.N/C(=N\N=C\c1ccc(Cl)cc1)N/N=C/c1ccc(Cl)cc1 [Robenidine hydrochloride],LEL,"Gallus gallus; subchronic, duration: 9 weeks, oral, diet, M/F, no effects",225 mg/kg-day
same,LEL,"Gallus gallus; subchronic, duration: 35 days, oral, diet, M/F, Chicken, no effects",82.5 mg/kg-day
same,NOEC,"repeat dose other, other",> 1.8 mg/kg-day
same,LEL,Sus scrofa,120 mg/kg-day
same,LEL,"Bovidae; short-term, duration: 28 days",60 mg/kg-day
same,NOEL,"Canidae; subchronic, duration: 90 days, Dog Other, organ weight",7.5 mg/kg-day
same,NOEC,Bibionidae; other,50 mg/kg
same,LC50,"Danio rerio; acute, mortality",0.036 mg/L
same,LC50,"Pontoscolex corethrurus; duration: 14 days, body weight",> 1000 mg/kg
same,NOAEL,"Oryctolagus sp.; reproduction developmental, duration: 84 days, oral, diet, New Zealand, reproduction",11 mg/kg-day
same,LEL,"Oryctolagus sp.; subchronic, duration: 48 days, oral, diet, no effects",500 mg/kg-day
COc1cc2c(c3oc4cccc(O)c4c(=O)c13)[C@@H]1C=CO[C@@H]1O2 [Sterigmatocystin],LEL,Ovis sp.,0.3 mg/kg-day
CCCCCc1cc(O)c2c(c1)OC(C)(C)[C@@H]1CCC(C)=C[C@@H]21 [Tetrahydrocannabinol],LEL,"Homo sapiens; duration: 12 weeks, oral, neurology",2.5 mg/day
same,LOAEL (mg/person-day),"Homo sapiens; oral, capsule, other",2.5
CC1=C[C@H]2O[C@@H]3[C@H](O)C[C@](C)([C@@]2(CO)[C@H](O)C1=O)[C@@]31CO1 [Vomitoxin],LOEL,"Sus scrofa; duration: 21 days, food consumption",0.35 mg/kg-day
